Test results taken from patent US20100035822A1, “PROLINE-RICH PEPTIDES, PHARMACEUTICAL COMPOSITION, USE OF ONE OR MORE PEPTIDES AND METHOD OF TREATMENT” (priority 2006, published 2010).
Square brackets hold non-standard residues; d marks the D form. Ends that are not written are not given here. pGlu = O=C1CC[C@@H](C(=O)O)N1

Tests used:
[1] = tested on: renal nitric oxide synthase (NOS); test: Activation of kidney NOS in mice (3H-arginine to 3H-citrulline conversion); assay type: in vivo, mouse; conditions: HOE 140 10 μg/Kg for 1 hour
Description: Male Swiss albinos weighing 22-25 g were injected intraperitoneally with: (1) 50 μl 0.9% NaCl (basal level control), or with 0.9% NaCl supplemented with LPS (2 mg/Kg) (positive control); (2) SEQ ID NO 8 (0.21, 0.91, and 3.47 mg/Kg); (3) SEQ ID NO 8 (0.91 mg/Kg) injected into animals pre-treated via intraperitoneally with L-NAME (3 mg/Kg for 1 h); (4) SEQ ID NO 8 (0.91 mg/Kg) injected into animals pre-treated via intraperitoneally with HOE140 (10 μg/Kg for 1 h); (5) captopril (0.21, 0.91, and 3.47 mg/Kg). After 5, 15, 30, 60, 120, and 180 min, animals were killed, their kidneys removed and stored at −70° C. Animals of group 3 and 4 were killed 30 minutes after administration of the oligopeptide.
NOS activity was measured according to Bredt and Snyder [Bredt D S and Snyder S H. Isolation of nitric oxide synthetase, a calmodulin-requiring enzyme. Proc. Natl. Acad. Sci. USA, 87, 682-685, 1990], and is based on estimating the enzymatic activity of the conversion of L-arginine into L-citrulline using ^3H-arginine as a reference for the conversion.
The kidneys were minced in homogenizing buffer, pH 7.4 (20 mM HEPES, 0.32 M saccharose, 1 mM DTT, 0.1 mM EDTA, 1 mM PMSF), and sonicated. Protein dosage was performed according to Bradford (1976), followed by a chromatography step in a 300 μL Dowex 50WX8-400 column.
For the enzymatic assay, 80 μg total protein from each sample were incubated for 60 minutes at 37° C. in 200 μL buffer (30 mM HEPES, 1 mM EDTA, 1.25 mM CaCl2, 1 mM NADPH, 10 μg/mL calmodulin, 4 μM FAD, 4 μM FMN, 25 μM BH4, 120 nM arginine, 0.5 μCi ^3H-arginine). The reaction was stopped by the addition of 1 ml 20 mM HEPES, and incubation in ice bath. ^3H-citrulline was separated from ^3H-arginine by ion-exchange chromatography in a 300 μL Dowex 50WX8-400 column. Radioactivity of the eluates was measured in a beta-counter. After converting cpm (counts per minute) into dpm (disintegration per minute), the specific activity of the nitric oxide synthase (NOS) was calculated using the following equation: […]

[2] = biological target: T1, argininosuccinate synthase (AsS) (Mus musculus, UniProt P16460); test: Affinity chromatography of mouse kidney extract on peptide column; identification of the bound protein; assay type: binding; conditions: affinity column with SEQ ID NO 7 as ligand; crude mouse kidney extract
T1 construct: Cytosolic and membrane fractions of the renal extract (100 mg/ml total protein) were applied to separate columns; from tissue; host or cells: Balb-c mouse kidney, cytosolic and membrane fractions
T1 sequence (P16460 1-412): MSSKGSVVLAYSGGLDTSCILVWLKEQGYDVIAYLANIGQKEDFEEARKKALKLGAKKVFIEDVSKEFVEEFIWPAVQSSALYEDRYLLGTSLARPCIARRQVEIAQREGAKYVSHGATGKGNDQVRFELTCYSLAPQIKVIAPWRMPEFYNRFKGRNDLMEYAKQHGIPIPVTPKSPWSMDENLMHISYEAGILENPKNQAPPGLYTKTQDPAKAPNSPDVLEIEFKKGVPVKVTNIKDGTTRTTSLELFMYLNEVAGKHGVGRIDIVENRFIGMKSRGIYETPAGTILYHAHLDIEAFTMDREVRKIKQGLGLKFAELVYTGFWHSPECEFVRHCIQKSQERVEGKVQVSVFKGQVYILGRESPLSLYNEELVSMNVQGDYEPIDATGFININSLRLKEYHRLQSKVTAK
Description: Starting material were the cytosolic and plasma membrane crude extracts of mouse kidney cells homogenized in the buffer 10 mM Tris-HCl pH 7.5, 25 mM saccharose, 1 mM EDTA, and 1 mM PMSF (cytosolic fraction), or 1% Triton X-100 (plasma membrane fraction). Supernatants were dialyzed in 0.2 M NaHCO3, 0.5 M NaCl, pH 8.3, and separately applied to the affinity chromatography column Hitrap NHS-activated (GE Healthcare) coupled to 5 mg of peptide SEQ ID NO 7.
Preparing affinity columns. Columns were washed three times with 2 ml 1 mM HCl before homogeneous preparations of SEQ ID NO 7 (5 mg in 1 ml 0.2 M NaHCO3, 0.5 M NaCl, pH 8.3) were applied. After 30 min incubation at room temperature, peptides had been coupled, and the column was inactivated with buffer A (0.5 M ethanolamine, 0.5 M NaCl, pH 8.3), and washed with 0.2 M NaHCO3, 0.5 M NaCl, pH 8.3, and stored at 4° C. in 50 mM Na2HPO4, 0.1%, NaN3, pH 7.0. The columns were called HiTrap-SEQ. ID NO 7. […]
Affinity chromatography and analysis of the retained proteins by SDS-PAGE. […] Protein concentration (mg/ml) was determined by the method of Bradford (Bradford, M. M. A rapid and sensitive method for the quantitation of microgram quantities of protein utilizing the principle of protein-dye binding. Anal. Biochem. 72: 248-254, 1976) with the Protein Assay reagent from BioRad. […]

[3] = tested on: SK-N-AS cells (human neuroblastoma); test: Free intracellular Ca2+ concentration in SK-N-AS cells (fluo-3 AM, confocal microscopy); assay type: cell-based
Description: In these experiments the variation in free intracellular calcium [Ca^2+]i concentration was measured in SK-N-AS cells (human neuroblastoma, ATCC No. CRL-2137) after addition of 1 μmolar of peptides SEQ ID NO 1 or SEQ ID NO 8, or of 1 μmolar captopril. Cells were kept in DMEM (Dulbecco Modified Medium), supplemented with 10% fetal bovine serum (FBS) and 1% non-essential amino acids, at 5% CO2 atmosphere, at 37° C., and 95% relative humidity. Cells were treated with trypsin, and replicated at adequate cell concentrations.
Measurements of variation in the concentration of free [Ca^2+]i were performed with a confocal microscope LSM 510 (Zeiss, Jena, Germany), as described by Martins et al., (Martins et al., Neuronal differentiation of P19 embryonal carcinoma cells modulates kinin B2 receptor gene expression and function. J. Biol. Chem. 280: 19576-19586, 2005). Approximately 5×10^4 SK-N-AS cells were plated on 60 mm plates 24 hours prior to measurement, and then treated with 4 μM fluo-3 AM (Invitrogen Corporation) in 0.5% DMSO and 0.1% non-ionic surfactant pluronic acid F-127 for 30 minutes at 37° C. Cells were washed with DMEM containing 10% FBS, and transferred to defined medium (5 μg/ml insulin, 30 μg/ml transferrin, 20 μM ethanolamine, 30 nM sodium selenite, 1 μM sodium pyruvate, 1% non-essential amino acids, 1 mM glutamine, 100 μg/ml penicillin, 100 μg/ml streptomycin, 10 mM HEPES pH 7.4 in DMEM). The fluorescent fluo-3 AM was excited at 488 nm, and the fluorescence measured at 526 nm.
Variations in the [Ca^2+]i were measured in non-stimulated cells, and in cells stimulated with peptides SEQ ID NO 1 or SEQ ID NO 8, or with captopril (Sigma Aldrich). Increase of fluorescence was monitored for 2 minutes, and images were acquired in 256×256 pixels every second. At the end of each experiment, 5 μM ionophore (4-Br-A23187) were added, followed by 10 mM EGTA, or 20 μM digitonin to determine maximum and minimum fluorescence, Fmax and Fmin respectively, as described by Grynkiewicz et al., (1985).
Intracellular calcium concentrations [Ca^2+]i, related to fluorescence (F) values obtained after addition of peptides SEQ ID NO 1 or SEQ ID NO 8, were calculated with the equation: [Ca^2+]=Kd(F−Fmin)/(Fmax−F), assuming Kd=450 nM for fluo-3 AM (Hallett et al., 1990).

[4] = biological target: T2, argininosuccinate synthase (AsS) (mouse, UniProt P16460 1-412); test: cell-based or functional assay
T2 sequence: T1 sequence (P16460 1-412)

Molecule: HOE 140
- effect of B2 receptor blockade on the NOS activity increase caused by SEQ ID NO 8 [1]: not able to prevent the increase

Molecule: ENWPHPQIPP [SEQ ID NO 7]
- binding to the approx. 46 kDa protein (AsS) of mouse kidney extract [2]: bound
- time from the peak until the [Ca2+]i plateau [3]: 20 s
- [Ca2+]i response peak ([3]; immediately after addition of the peptide): ~250 nM

B1: oligopeptide SEQ ID NO 8 (peptide)
peptide: [pGlu]NWPHPQIPP
- production rate of phosphate (enzymatic activity of the AsS) [4]: ~2.5 fold
